From publication PMC3783749 (Indian Journal of Pharmaceutical Sciences, 2013)
In brackets after ≈: the same amount, converted by molar mass.

What was measured:
[1] = system: Candida tropicalis (ATCC 1369); experiment: Antifungal MIC by broth dilution; assay type: cell-based; settings: read-out: MIC values, Ct
[2] = system: Klebsiella pneumoniae ATCC 10031; experiment: MIC by broth microdilution method; assay type: cell-based; settings: Gram-negative; 37°, 18 h

Structure (SMILES)	MIC [1]	MIC values, Kp [2]
Cc1ccc(C)n1-c1ccc(-c2nnc(-c3cccc([N+](=O)[O-])c3)[nH]2)cc1 [Compound 4e, 3-(4-(2,5-Dimethyl-1H-pyrrol-1-yl)phenyl)-5-(3-nitrophenyl)-4H-1,2,4-triazole]	31.2 µg/mL (≈ 87 µM)	–
Cc1ccc(C)n1-c1ccc(-c2nnc(-c3ccccc3[N+](=O)[O-])[nH]2)cc1 [Compound 4f, 3-(4-(2,5-Dimethyl-1H-pyrrol-1-yl)phenyl)-5-(2-nitrophenyl)-4H-1,2,4-triazole]	31.2 µg/mL (≈ 87 µM)	–
Cc1ccc(C)n1-c1ccc(-c2nnc(-c3ccc(O)cc3)[nH]2)cc1 [Compound 4g, 4-(5-(4-(2,5-Dimethyl-1H-pyrrol-1-yl)phenyl)-4H-1,2,4-triazol-3-yl) phenol]	31.2 µg/mL (≈ 94.6 µM)	–
Cc1ccc(C)n1-c1ccc(C(=O)NNC=O)cc1 [Compound 5, 4-(2,5-dimethyl-1H-pyrrol-1-yl)-N’-formylbenzohydrazide]	–	31.25 µg/mL (≈ 121 µM)
